# Experimental data reported in ChEMBL document CHEMBL5579862, “Development of Novel Bacterial Topoisomerase Inhibitors Assisted by Computational Screening” (ACS Med Chem Lett, 2024).
# Calls of active or inactive are those of the source. The rule behind the calls is not given here.
# Columns and labels:
# [1] = system: Salmonella typhimurium; experiment: Antibacterial activity against efflux deficient Salmonella typhimurium 14028 deltatolC1::kan; type: functional, Salmonella enterica subsp. enterica serovar Typhimurium; conditions: Salmonella enterica
# [2] = system: Staphylococcus aureus; experiment: Antibacterial activity against methicillin resistant Staphylococcus aureus USA300; type: functional
# [3] = system: Staphylococcus aureus; experiment: Antibacterial activity against Staphylococcus aureus ATCC 29213; type: functional
# [4] = system: Acinetobacter baumannii; experiment: Antibacterial activity against Acinetobacter baumannii ATCC 19606; type: functional
# [5] = system: Salmonella typhimurium; experiment: Antibacterial activity against Salmonella typhimurium ATCC 14028; type: functional, Salmonella enterica subsp. enterica serovar Typhimurium; conditions: Salmonella enterica
# [6] = system: Staphylococcus aureus; experiment: Antibacterial activity against Staphylococcus aureus D83N; type: functional
# [7] = system: Escherichia coli; experiment: Antibacterial activity against Escherichia coli ATCC 25922; type: functional
# [8] = molecular target: T1, Topoisomerase IV (Staphylococcus aureus) (UniProt P0C1U9+P0C1S7); experiment: Inhibition of Staphylococcus aureus DNA topoisomerase IV assessed as accumulation of double strand breaks incubated at 37 degreeC for 30 mins followed by incubation at 45 degreeC for 30 mins by ethidium bromide based agarose gel electrophoresis; type: protein-complex assay; conditions: time 60.0 min
# [9] = molecular target: DNA gyrase (Staphylococcus aureus) (UniProt P0A0K8+P20831); experiment: Inhibition of Staphylococcus aureus DNA gyrase assessed as accumulation of single strand breaks at 10 uM incubated at 37 degreeC for 30 mins followed by incubation at 45 degreeC for 30 mins by ethidium bromide based agarose gel electrophoresis; type: protein-complex assay; conditions: time 60.0 min
# [10] = molecular target: DNA gyrase (Staphylococcus aureus, UniProt P0A0K8+P20831); experiment: Inhibition of Staphylococcus aureus DNA gyrase using relaxed pBR322 DNA as substrate incubated for 30 mins by ethidium bromide staining based agarose gel electrophoresis method; type: protein-complex assay
# [11] = molecular target: T1, Topoisomerase IV (Staphylococcus aureus); experiment: Inhibition of Staphylococcus aureus DNA topoisomerase IV assessed as accumulation of single strand breaks incubated at 37 degreeC for 30 mins followed by incubation at 45 degreeC for 30 mins by ethidium bromide based agarose gel electrophoresis; type: protein-complex assay; conditions: time 60.0 min
# [12] = molecular target: Topoisomerase IV (Staphylococcus aureus, UniProt P0C1S7+P0C1U9); experiment: Inhibition of Staphylococcus aureus topoisomerase-IV assessed as reduction in decatenation using kinetoplast DNA as substrate incubated for 20 mins by ethidium bromide staining based agarose gel electrophoresis method; type: protein-complex assay
# [13] = molecular target: DNA gyrase (Escherichia coli, UniProt P0AES4+P0AES6); experiment: Inhibition of Escherichia coli DNA gyrase using relaxed pBR322 DNA as substrate incubated at 37 degreeC for 30 to 45 mins followed by incubation at 75 degreeC for 10 mins by ethidium bromide staining based agarose gel electrophoresis method; type: protein-complex assay
Compound,MIC [1] [µg/mL],MIC [2] [µg/mL],MIC [3] [µg/mL],MIC [4] [µg/mL],MIC [5] [µg/mL],MIC [6] [µg/mL],other results
COc1ccc2ncc(F)c(CCN3CCC(/C=C/c4ccc5c(c4)NC(=O)CO5)CC3)c2n1,0.25,≤ 0.25,0.5,8,16,16,–
COc1ccc2ncc(F)c(CCN3CCC([C@H](O)[C@H](O)c4ccc5c(c4)OCCO5)CC3)c2n1,–,–,≤ 0.13,–,–,–,–
COc1ccc2ncc(F)c(CCN3CCC([C@@H](O)[C@H](O)c4ccc(C)cc4)CC3)c2n1,0.5,2,–,–,–,–,–
COc1ccc2ncc(F)c(CCN3CCC(C(=O)Cc4ccc5c(c4)OCCO5)CC3)c2n1,≥ 1,4,4,64,–,32,MIC [7]: 64 µg/mL
COc1ccc2ncc(F)c(CCN3CCC(/C=C\c4ccc5c(c4)OCCO5)CC3)c2n1,4,8,8,64,≥ 64,≥ 16,MIC [7]: ≥ 64 µg/mL
COc1ccc2ncc(F)c(CCN3CCC(/C=C/c4ccc(C)cc4)CC3)c2n1,0.5,–,0.25,–,≥ 64,≥ 32,–
O=c1ccc2ncc(=O)n3c2n1C[C@H]3CN1CCC(NCc2cc3c(cn2)OCCC3)CC1 [GEPOTIDACIN],0.125,–,–,8,2,8,MIC [7]: 1 µg/mL
COc1ccc2ncc(F)c(CCN3CCC(NCc4ccc(C)cc4)CC3)c2n1,0.5,≤ 0.25,≤ 0.25,4,32,16,inhibition [8]: < 1%; MIC [7]: 4 µg/mL; inhibition [9]: Active; IC50 [10]: 4 nM; inhibition [11]: Active; IC50 [12]: 690 nM
COc1ccc2ncc(F)c(CCN3CCC(/C=C/c4ccc5c(c4)OCCO5)CC3)c2n1,0.125,0.5,0.25,8,64,2,MIC [7]: 8 µg/mL
COc1ccc2ncc(F)c(CCN3CCC(C(N)Cc4ccc5c(c4)OCCO5)CC3)c2n1 (stereo not drawn),–,–,–,–,–,≥ 16,–
COc1ccc2ncc(F)c(CCN3CCC([C@@H](O)[C@H](O)c4ccc5c(c4)NC(=O)CO5)CC3)c2n1,–,–,–,–,–,≥ 32,–
COc1ccc2ncc(F)c(CCN3CCC(CCc4ccc(C)cc4)CC3)c2n1,–,–,–,–,≥ 64,4,–
COc1ccc2ncc(F)c(CCN3CCC(C(=O)Cc4ccc5c(c4)NC(=O)CO5)CC3)c2n1,–,–,≤ 0.13,4,16,–,MIC [7]: 2 µg/mL
COc1ccc2ncc(F)c(CCN3CCC(CCc4ccc5c(c4)OCCO5)CC3)c2n1,0.25,–,–,–,–,8,–
COc1ccc2ncc(F)c(CCN3CCC(/C=C\c4ccc(C)cc4)CC3)c2n1,8,4,4,–,–,32,–
COc1ccc2ncc(F)c(CCN3CCC([C@@H](O)[C@H](O)c4ccc5c(c4)OCCO5)CC3)c2n1,–,1,–,–,–,–,–
COc1ccc2ncc(F)c(CCN3CCC(/C=C\c4ccc5c(c4)NC(=O)CO5)CC3)c2n1,16,–,≥ 64,32,–,≥ 64,–
COc1ccc2ncc(F)c(CCN3CCC(C(N)Cc4ccc(C)cc4)CC3)c2n1 (stereo not drawn),–,–,–,–,–,32,inhibition [8]: < 1%; inhibition [9]: Active; IC50 [13]: > 400 µM; IC50 [10]: 5050 nM; inhibition [11]: Active; IC50 [12]: 82600 nM
COc1ccc2ncc(F)c(CCN3CCC([C@H](O)[C@H](O)c4ccc(C)cc4)CC3)c2n1,–,0.13,–,–,–,–,inhibition [8]: < 1%; IC50 [13]: 17.1 µM; IC50 [10]: 65 nM; inhibition [11]: Active; IC50 [12]: 3310 nM
COc1ccc2ncc(F)c(CCN3CCC([C@@H](O)[C@@H](O)c4ccc(C)cc4)CC3)c2n1,–,0.25,0.13,–,–,–,–
COc1ccc2ncc(F)c(CCN3CCC(C(O)Cc4ccc5c(c4)OCC(=O)N5)CC3)c2n1 (stereo not drawn),0.125,–,–,–,–,–,–
COc1ccc2ncc(F)c(CCN3CCC([C@H](O)[C@@H](O)c4ccc(C)cc4)CC3)c2n1,–,2,–,32,–,–,–
COc1ccc2ncc(F)c(CCN3CCC([C@@H](O)[C@@H](O)c4ccc5c(c4)OCCO5)CC3)c2n1,–,0.03,–,–,–,–,–
COc1ccc2ncc(F)c(CCN3CCC(C(O)Cc4ccc5c(c4)OCCO5)CC3)c2n1 (stereo not drawn),–,–,–,–,–,4,–
COc1ccc2ncc(F)c(CCN3CCC([C@H](O)[C@@H](O)c4ccc5c(c4)NC(=O)CO5)CC3)c2n1,0.25,–,–,–,–,–,–
COc1ccc2ncc(F)c(CCN3CCC(C(O)Cc4ccc(C)cc4)CC3)c2n1 (stereo not drawn),1,0.25,–,–,–,8,inhibition [8]: < 1%; IC50 [13]: 12.4 µM; IC50 [10]: 240 nM; inhibition [11]: Active; IC50 [12]: 2290 nM
